Measurements as given in the supplement of paper PMC10307832.

Tests used:
Assay in all cases: relative viability (nuclei count vs DMSO), 5 days (fraction); higher = more cells survive
Decitabine + Pictilisib = compound: Nc1ncn([C@H]2C[C@H](O)[C@@H](CO)O2)c(=O)n1 [Decitabine] + CS(=O)(=O)N1CCN(Cc2cc3nc(-c4cccc5[nH]ncc45)nc(N4CCOCC4)c3s2)CC1 [Pictilisib] (partner 1 µM)
How it was run: (§1)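 For relative viability, nuclei counts in treated wells were divided by those in vehicle wells. Lung cancer cell lines had been pin-tool dosed in 1536-well plates the day after seeding and cultured for 5 days, then fixed and stained in one step (final 0.05% Triton X-100, 1% formaldehyde, 1 ug/ml Hoechst) and imaged at 4×. Doses were one drug alone or a fixed anchor-drug dose plus five library-drug doses (not always all listed) in √10 steps, and values are duplicate-plate medians.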

Cediranib + Pictilisib = compound: COc1cc2c(Oc3ccc4[nH]c(C)cc4c3F)ncnc2cc1OCCCN1CCCC1 [Cediranib] + CS(=O)(=O)N1CCN(Cc2cc3nc(-c4cccc5[nH]ncc45)nc(N4CCOCC4)c3s2)CC1 [Pictilisib] (partner 1 µM)
How it was run: as §1

Decitabine + OSI-027 = compound: Nc1ncn([C@H]2C[C@H](O)[C@@H](CO)O2)c(=O)n1 [Decitabine] + COc1cccc2cc(-c3nc([C@H]4CC[C@H](C(=O)O)CC4)n4ncnc(N)c34)[nH]c12 [OSI-027] (partner 0.5 µM)
How it was run: as §1

Decitabine + Phenformin = compound: Nc1ncn([C@H]2C[C@H](O)[C@@H](CO)O2)c(=O)n1 [Decitabine] + N=C(N)NC(=N)NCCc1ccccc1 [Phenformin] (partner 250 µM)
How it was run: as §1

Row | Cell Line | relative viability (Decitabine + Pictilisib; first compound 0.04 µM) | relative viability (Decitabine + Pictilisib; first compound 0.1265 µM) | relative viability (Decitabine + Pictilisib; first compound 0.4 µM) | relative viability (Decitabine + Pictilisib; first compound 1.265 µM) | relative viability (Decitabine + Pictilisib; first compound 4 µM) | relative viability (Cediranib + Pictilisib; first compound 0.04 µM) | relative viability (Cediranib + Pictilisib; first compound 0.1265 µM) | relative viability (Cediranib + Pictilisib; first compound 0.4 µM) | relative viability (Cediranib + Pictilisib; first compound 1.265 µM) | relative viability (Cediranib + Pictilisib; first compound 4 µM) | relative viability (Decitabine + OSI-027; first compound 0.04 µM) | relative viability (Decitabine + OSI-027; first compound 0.1265 µM) | relative viability (Decitabine + OSI-027; first compound 0.4 µM) | relative viability (Decitabine + OSI-027; first compound 1.265 µM) | relative viability (Decitabine + OSI-027; first compound 4 µM) | relative viability (Decitabine + Phenformin; first compound 0.04 µM) | relative viability (Decitabine + Phenformin; first compound 0.1265 µM) | relative viability (Decitabine + Phenformin; first compound 0.4 µM) | relative viability (Decitabine + Phenformin; first compound 1.265 µM) | relative viability (Decitabine + Phenformin; first compound 4 µM)
1 | HARA | 0.367 | 0.564 | 0.285 | 0.236 | 0.15 | 0.269 | 0.684 | 0.393 | 0.481 | 0.37 | 0.251 | 0.257 | 0.164 | 0.112 | 0.111 | 0.307 | 0.36 | 0.236 | 0.148 | 0.125
2 | HCC-15 | 0.742 | 0.767 | 0.288 | 0.484 | 0.411 | 0.602 |  | 0.699 | 0.686 | 0.987 | 0.688 | 0.722 | 0.328 | 0.445 | 0.327 | 0.448 | 0.49 | 0.252 | 0.327 | 0.333
3 | HCC-44 | 0.537 | 0.71 | 0.353 | 0.412 | 0.372 | 0.589 |  | 0.552 | 0.669 | 0.714 |  | 0.739 | 0.232 | 0.364 | 0.49 | 0.136 | 0.196 | 0.0892 | 0.136 | 0.13
4 | HCC-78 | 0.233 | 0.241 | 0.229 | 0.21 | 0.228 | 0.24 | 0.204 | 0.21 | 0.174 | 0.187 | 0.344 | 0.365 | 0.345 | 0.353 | 0.344 | 0.626 | 0.634 | 0.593 | 0.505 | 0.477
5 | HCC-366 | 0.221 | 0.221 | 0.229 | 0.11 | 0.0886 | 0.138 | 0.148 | 0.127 | 0.0996 | 0.17 | 0.859 | 0.915 | 0.485 | 0.253 | 0.176 | 0.505 | 0.528 | 0.392 | 0.244 | 0.155
6 | HCC-827 | 0.511 | 0.63 | 0.618 | 0.505 | 0.62 | 1.1 |  | 0.955 | 0.944 | 0.97 | 0.129 | 0.37 | 0.311 | 0.202 | 0.27 | 0.17 | 0.288 | 0.283 | 0.214 | 0.289
7 | HOP-62 | 0.668 | 0.585 | 0.239 | 0.159 | 0.162 | 0.813 |  | 0.578 | 0.413 | 1.16 | 0.613 | 0.601 | 0.272 | 0.23 | 0.167 | 0.464 | 0.374 | 0.175 | 0.168 | 0.148
8 | IA-LM | 0.253 | 0.269 | 0.163 | 0.147 | 0.0969 | 0.369 | 0.577 | 0.315 | 0.406 | 0.361 |  |  |  |  |  |  |  |  |  | 
9 | LC-2-ad | 0.359 | 0.37 | 0.495 | 0.3 | 0.275 | 0.655 | 0.567 | 0.411 | 0.395 | 0.201 | 0.738 | 0.705 | 0.663 | 0.457 | 0.479 | 0.512 | 0.552 | 0.509 | 0.419 | 0.416
10 | LCLC-97TM1 | 0.145 | 0.166 | 0.0979 | 0.105 | 0.117 | 0.174 |  | 0.168 | 0.122 | 0.248 | 0.244 | 0.295 | 0.188 | 0.229 | 0.11 | 0.304 | 0.308 | 0.312 | 0.293 | 0.124
11 | LCLC-103H | 0.638 | 0.669 | 0.526 | 0.655 | 0.647 | 0.63 | 0.754 | 0.619 | 0.654 | 0.56 | 0.406 | 0.472 | 0.462 | 0.376 | 0.376 | 0.319 | 0.36 | 0.293 | 0.328 | 0.315
12 | NCI-H522 |  |  |  |  |  |  |  |  |  |  | 0.695 | 0.827 | 0.561 | 0.609 | 0.582 | 0.564 | 0.674 | 0.514 | 0.552 | 0.65
13 | NCI-H1299 | 0.836 | 0.881 | 0.829 | 0.619 | 0.505 | 0.866 | 0.844 | 0.719 | 0.853 | 0.748 |  |  |  |  |  |  |  |  |  | 
14 | NCI-H1623 |  |  |  |  |  |  |  |  |  |  | 0.359 | 0.438 | 0.427 | 0.4 | 0.363 | 0.539 | 0.507 | 0.5 | 0.492 | 0.462
15 | NCI-H1648 |  |  |  |  |  |  |  |  |  |  | 0.266 | 0.236 | 0.264 | 0.267 | 0.26 |  |  |  |  | 
16 | NCI-H1703 | 0.29 | 0.258 | 0.196 | 0.234 | 0.181 | 0.226 | 0.209 | 0.209 | 0.194 | 0.221 |  |  |  |  |  |  |  |  |  | 
17 | NCI-H2342 |  |  |  |  |  |  |  |  |  |  | 0.544 | 0.583 | 0.565 | 0.595 | 0.599 | 0.597 | 0.732 | 0.511 | 0.514 | 0.535
18 | SW 900 |  |  |  |  |  |  |  |  |  |  | 0.321 | 0.349 | 0.191 | 0.183 | 0.175 | 0.319 | 0.32 | 0.269 | 0.19 | 0.219
